Experimental data reported in ChEMBL document CHEMBL1155332 (Bioorg Med Chem Lett, 2009).

How the values were obtained:
Assay type in all cases: ADME, organism-based
[1] = Bioavailability in […] rat; conditions: in vivo
[2] = Clearance in iv dosed rat; conditions: in vivo
[3] = Cmax in squirrel monkey at 10 mg/kg; parameters: dose 10 mg/kg; conditions: saimiri, in vivo
[4] = Cmax in squirrel monkey at 2 mg/kg; parameters: dose 2 mg/kg; conditions: saimiri, in vivo
[5] = Cmax in squirrel monkey at 0.4 mg/kg; parameters: dose 0.4 mg/kg; conditions: saimiri, in vivo

bioavailability [1] [%]	clearance [2] [mL/min/kg]	Cmax [3] [nM]	Cmax [4] [nM]	Cmax [5] [nM]	SMILES
99	8	–	–	–	CC(C)(c1cc(-c2cccc(CC(F)(c3ccc(S(C)(=O)=O)cc3)C(O)(C3CC3)C3CC3)c2)c2ncccc2c1)S(C)(=O)=O.CCl (centres undefined)
100	7	3800	–	–	Cc1noc(/C(=C/c2cccc(-c3cc(C(C)(C)S(C)(=O)=O)cc4cccnc34)c2)c2ccc(S(C)(=O)=O)cc2)n1
9	51	–	–	–	CC(C)(c1cc(-c2cccc(CC(CO)c3ccc(S(C)(=O)=O)cc3)c2)c2ncccc2c1)S(C)(=O)=O (centres undefined)
1	76	–	–	–	CC(C)(c1cc(-c2cccc(CC(c3ccc(S(C)(=O)=O)cc3)S(C)(=O)=O)c2)c2ncccc2c1)S(C)(=O)=O (centres undefined)
84	17	–	–	–	CC(C)(O)C(F)(Cc1cccc(-c2cc(C(C)(C)S(C)(=O)=O)cc3cccnc23)c1)c1ccc(S(C)(=O)=O)cc1 (centres undefined)
53	9	–	–	–	CC(C)(c1cc(-c2cccc(CC(F)(c3ccc(S(C)(=O)=O)cc3)S(C)(=O)=O)c2)c2ncccc2c1)S(C)(=O)=O (centres undefined)
21	50	–	–	–	CC(C)(O)C(Cc1cccc(-c2cc(C(C)(C)S(C)(=O)=O)cc3cccnc23)c1)c1ccc(S(C)(=O)=O)cc1 (centres undefined)
69	11	–	–	–	CC(C)(c1cc(-c2cccc(CC(F)(c3ccc(S(C)(=O)=O)cc3)C(O)(C3CC3)C3CC3)c2)c2ncccc2c1)S(C)(=O)=O.Cl (single isomer, unassigned)
36	9	–	–	–	CC(C)(c1cc(-c2cccc(CC(F)(c3ccc(S(C)(=O)=O)cc3)S(=O)(=O)C3CC3)c2)c2ncccc2c1)S(C)(=O)=O.Cl (single isomer, unassigned)
99	3	–	1900	–	CC(C)(c1cc(-c2cccc(CC(F)(c3ccc(S(C)(=O)=O)cc3)S(=O)(=O)C3CC3)c2)c2ncccc2c1)S(C)(=O)=O (single isomer, unassigned; Enantio B)
99	38	–	–	100	CC(C)(c1cc(-c2cccc(CC(F)(c3ccc(S(C)(=O)=O)cc3)C(O)(C3CC3)C3CC3)c2)c2ncccc2c1)S(C)(=O)=O (single isomer, unassigned; Enantio B)

SMILES	bioavailability [1] [%]	clearance [2] [mL/min/kg]	Cmax [3] [nM]	Cmax [4] [nM]	Cmax [5] [nM]
COP(=O)(OC)C(Cc1cccc(-c2cc(C(C)(C)S(C)(=O)=O)cc3cccnc23)c1)c1ccc(S(C)(=O)=O)cc1 (centres undefined)	3	48	–	–	–
COP(=O)(OC)C(F)(Cc1cccc(-c2cc(C(C)(C)S(C)(=O)=O)cc3cccnc23)c1)c1ccc(S(C)(=O)=O)cc1 (centres undefined)	51	177	–	–	–
